Data set [1] relates to cysteine peptide (Ac-RFAACAA-COOH). The data set can be described thus: Direct Peptide Reactivity Assay, cysteine peptide. To be noted: for % of Cysteine depletion, Avg / % of Cysteine depletion, Rep 2 / % of Cysteine depletion, Rep 3 / Reactivity Class: 1:10; for % of Cysteine depletion, Rep 1: peptide 0.02 mM : test chemical 0.2 mM (1:10); for Reactivity Class: cysteine. The protocol:
For cysteine DPRA, an additional step was performed.
The mass spectrometric analysis was performed by use of a AB SCIEX QTRAP 5500 tandem mass spectrometry (MS/MS) system (AB SCIEX, Framingham, Mass., USA) operating in triple quadrupole positive mode (ESI+) equipped with an AB Sciex Turbo Ion Spray interface. Acquisition and analysis of data were performed with Analyst software ver. 1.6.2 (Applied Biosystems).

The next data set has as its system IL-8. Description: IL-8 ELISA on THP-1 cell supernatants. In kind it is cell-based, human. To be noted: preliminary ELISA, CV75.
A further data set concerns HaCaT cells. The data set can be described thus: In vitro cell cytotoxicity (MTT) assay on HaCaT cells. The data set is classed as cell-based, human. To be noted: Homo sapiens, HaCaT; 72 h incubation; MTT. In short, it runs like this: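 HaCaT keratinocytes seeded at 5×10^3/well, after 24 h exposed 72 h to test compounds serially diluted from 500 μM to 1.9 μM in 10% FBS DMEM. MTT (1 mg/ml, 4 h) read at 570 nm; viability expressed as percent of untreated control.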

Data set [2] has as its system cysteine and lysine peptides. The data set can be described thus: Direct Peptide Reactivity Assay, mean of cysteine and lysine depletion (FIG. 12).
Procedure: Direct reactivity of test chemical to lysine-based synthetic peptide was determined in reactions containing 100 mM ammonium acetate buffer (pH 10.2). The final concentration of lysine peptide was 20 μM in a final reaction volume of 0.3 ml. Direct reactivity of test chemicals to cysteine-based synthetic peptide was determined in 100 mM Sodium Phosphate buffer of pH 7.5.
For the DPRA, incubation mixtures were prepared using each peptide to test compound ratios of both 1:10 for cysteine peptide and 1:50 for lysine peptide, according to Table 19. […] Sample reactions were initiated by adding 3 μl of a test chemical stock solution for cysteine and 15 μl stock solution for lysine peptide. These mixtures were then placed in a temperature-controlled shaking incubator at 25° C.
At each time point (20 mins/24 hours), the incubation mixtures were quenched with 75 μL of 95% ACN/H2O, and mildly vortexed (600 rpm, 3 seconds). For Lysine DPRA experiment, 10 μl of aliquot was diluted with 2% ACN/H2O, vortexed and stored at −80° C. until analysis by LC-MS/MS. For cysteine DPRA, an additional step was performed. 10 μl of cysteine reaction mixture, at time points 20 min and 24 h were diluted in 180 μl of 2% ACN/H2O. To which, a 10 μl aliquot of a 16 mM dithiothreitol solution (prepared in water) was then added, and samples were heated in a 45° C. oven for 30 min, then allowed to cool to room temperature prior to analysis. The peptide depletion (PD) percentage was obtained using this equation.

With `Nc1ccc(N)cc1` [PPD, para-phenylenediamine, reference compound], in data set [1] (20 min), the “% of Cysteine depletion, Avg” value came out at 15.1%; the “% of Cysteine depletion, Rep 2” value was 14%; the “% of Cysteine depletion, Rep 3” value is 15.2%; the “% of Cysteine depletion, Rep 1” value worked out at 16.2%. In addition, the “Reactivity Class” value in data set [1] (20 min) was “low and Low”. In data set [1] (24 h), the “% of Cysteine depletion, Avg” value was determined as 77.6%; the “% of Cysteine depletion, Rep 2” value is reported as 78%; the “% of Cysteine depletion, Rep 3” value was 77.2%; the “% of Cysteine depletion, Rep 1” value is on record as 77.7%. For the same molecule, the “Reactivity Class” value in data set [1] (24 h) is reported as “High”. Moreover, the IL-8 expression result in the data set with IL-8 is “increased expression”. In addition, the IC50 (usually the concentration that inhibits the measured activity by half) in the data set with HaCaT cells was determined as 23.5 µM. Further, the “Sensitizing potential predicted from mean peptide depletion” value in data set [2] (cysteine 1:10 / lysine 1:50 model) is “strong sensitizer”. Besides, in data set [2] (mean of cysteine (1:10) and lysine (1:50), FIG. 12), the Mean peptide depletion is given as 55.5%.
